Experimental data as given in patent US20060069132A1, “Azolecarboxamide herbicides” (priority 2004, published 2006).

Experiments:
common ragweed = test: Test C pre-/postemergence herbicide test; assay type: in vivo, Ambrosia elatior; set-up: key to Plant response rating, Ragweed: 0 = no effect, 100 = complete control
Summary of the method: (§1)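 Visual ratings on a 0–100 scale (100 = complete control) made versus untreated controls after 12 to 14 greenhouse days. Test chemicals, formulated in surfactant-containing non-phytotoxic solvent, applied preemergence to planted seeds or postemergence to 1- to 4-leaf plants (2 to 18 cm).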

giant foxtail = test: Test C pre-/postemergence herbicide test; assay type: in vivo, Setaria faberi
Summary of the method: as §1

[1] = system: common (oilseed) sunflower; test: Test C pre-/postemergence herbicide test; assay type: in vivo, Helianthus annuus
Summary of the method: as §1

eastern black nightshade = test: Test C pre-/postemergence herbicide test; assay type: in vivo, Solanum ptycanthum
Summary of the method: as §1

barnyardgrass = test: Test C flooded paddy test; assay type: in vivo, Echinochloa crus-galli
Summary of the method: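 Injury scored visually against controls on a 0 (no effect) to 100 (complete control) scale, 12 to 14 days after treatment in greenhouse. Flooded paddy plants treated at 2-leaf stage; postemergence plants at 1- to 4-leaf stage, 2 to 18 cm tall.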

rice = test: Test C flooded paddy test; assay type: in vivo, Oryza sativa
Summary of the method: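 Postemergence sprays applied to plants 2 to 18 cm tall (1- to 4-leaf stage); paddy species grown to 2-leaf stage under flooding. After 12 to 14 days in greenhouse, visual rating versus untreated controls on 0–100 scale (0 no effect, 100 complete control).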

[2] = 62 g ai/ha, preemergence, scale 0 to 100
[3] = 125 g ai/ha, scale 0 (no effect) to 100 (complete control), visual, 12 to 14 days, preemergence
[4] = Preemergence, 500 g ai/ha, scale 0 to 100, 0 no effect, 100 complete control
[5] = 62 g ai/ha, scale 0 to 100 (0 no effect, 100 complete control)
[6] = 250 g ai/ha, scale of 0 to 100, 0 is no effect, 100 is complete control
[7] = 500 g ai/ha, visual rating after 12 to 14 days, scale 0 to 100 (0 no effect, 100 complete control)
[8] = 125 g ai/ha, scale 0 to 100 (0 no effect, 100 complete control)
[9] = 250 g ai/ha, scale 0-100, preemergence
[10] = 500 g ai/ha, scale 0 to 100 (0 no effect, 100 complete control), visual, 12 to 14 days, preemergence

CCNC(=O)c1ccnc(NC(=O)c2cc(C(C)(C)C)nn2CC)c1 [Compound 152]
Plant response rating, Ragweed (common ragweed; [2]): 85 | Plant response rating, Ragweed (common ragweed; [3]): 85 | Ragweed plant response rating (common ragweed; [4]): 100 | Plant response rating, Foxtail, Giant (giant foxtail; [2]): 70 | Plant response rating, Foxtail, Giant (giant foxtail; [3]): 100 | Plant response rating, Foxtail, Giant (giant foxtail; 250 g ai/ha, scale 0 to 100 (0 no effect, 100 complete control), visual, 12 to 14 days, preemergence): 100 | Foxtail, Giant plant response rating (giant foxtail; [4]): 100 | Plant response rating, Sunflower [1, 2]: 0 | Plant response rating, Sunflower [1, 3]: 10 | Sunflower plant response rating [1, 4]: 70 | Plant response rating, Nightshade (eastern black nightshade; [2]): 80 | Plant response rating, Nightshade (eastern black nightshade; [3]): 90 | Nightshade plant response rating (eastern black nightshade; [4]): 100 | Barnyardgrass plant response rating (barnyardgrass; [5]): 40 | Barnyardgrass plant response rating (barnyardgrass; 125 g ai/ha, scale of 0 to 100, 0 is no effect, 100 is complete control): 75 | Barnyardgrass plant response rating (barnyardgrass; [6]): 75 | Plant response rating, Barnyardgrass (barnyardgrass; [7]): 85 | Rice plant response rating (rice; [5]): 50 | Rice plant response rating (rice; [8]): 75 | Rice plant response rating (rice; [6]): 75 | Plant response rating, Rice (rice; [7]): 80

CCNC(=O)c1ccc(F)c(NC(=O)C2CN(C(C)(C)C)N=C2CC)c1 (stereo not shown) [Compound 336, 1-(1,1-dimethylethyl)-3-ethyl-N-[5-[(ethylamino)carbonyl]-2-fluorophenyl]-4,5-dihydro-1H-pyrazole-4-carboxamide]
pest or weed control at 62 g/ha (common ragweed; Ambrosia artemisiifolia, pre-emergence, 62 g ai/ha, preemergence, scale 0 to 100, read-out: Plant response rating, Ragweed): 30% | pest or weed control at 250 g/ha (common ragweed; Ambrosia artemisiifolia, pre-emergence, 250 g ai/ha, scale 0-100, read-out: Plant response rating, Ragweed): 80% | pest or weed control at 500 g/ha (common ragweed; Ambrosia artemisiifolia, pre-emergence, 500 g ai/ha, scale 0 to 100 (0 no effect, 100 complete control), visual, 12 to 14 days, read-out: Plant response rating, Ragweed): 100% | pest or weed control at 62 g/ha (giant foxtail; Setaria faberi, pre-emergence, 312 h, 62 g ai/ha, preemergence, scale 0 to 100, read-out: Plant response rating, Foxtail, Giant): 0% | pest or weed control at 125 g/ha (giant foxtail; Setaria faberi, pre-emergence, 312 h, 125 g ai/ha, scale 0 (no effect) to 100 (complete control), visual, 12 to 14 days, read-out: Plant response rating, Foxtail, Giant): 5% | pest or weed control at 250 g/ha (giant foxtail; Setaria faberi, pre-emergence, 312 h, 250 g ai/ha, scale 0-100, read-out: Plant response rating, Foxtail, Giant): 90% | pest or weed control at 500 g/ha (giant foxtail; Setaria faberi, pre-emergence, 312 h, 500 g ai/ha, scale 0 to 100 (0 no effect, 100 complete control), visual, 12 to 14 days, read-out: Plant response rating, Foxtail, Giant): 90% | pest or weed control at 62 g/ha ([1]; Helianthus annuus, pre-emergence, 62 g ai/ha, preemergence, scale 0 to 100, read-out: Plant response rating, Sunflower): 0% | pest or weed control at 250 g/ha ([1]; Helianthus annuus, pre-emergence, 250 g ai/ha, scale 0-100, read-out: Plant response rating, Sunflower): 30% | pest or weed control at 500 g/ha ([1]; Helianthus annuus, pre-emergence, 500 g ai/ha, scale 0 to 100 (0 no effect, 100 complete control), visual, 12 to 14 days, read-out: Plant response rating, Sunflower): 45% | pest or weed control at 62 g/ha (eastern black nightshade; pre-emergence, 62 g ai/ha, preemergence, scale 0 to 100, read-out: Plant response rating, Nightshade): 85% | pest or weed control at 125 g/ha (eastern black nightshade; pre-emergence, 125 g ai/ha, scale 0 (no effect) to 100 (complete control), visual, 12 to 14 days, read-out: Plant response rating, Nightshade): 95% | pest or weed control at 250 g/ha (eastern black nightshade; pre-emergence, 250 g ai/ha, scale 0-100, read-out: Plant response rating, Nightshade): 100% | pest or weed control at 500 g/ha (eastern black nightshade; pre-emergence, 500 g ai/ha, scale 0 to 100 (0 no effect, 100 complete control), visual, 12 to 14 days, read-out: Plant response rating, Nightshade): 100% | pest or weed control at 62 g/ha (barnyardgrass; Echinochloa crus-galli, 62 g ai/ha, scale 0 to 100 (0 no effect, 100 complete control), read-out: Barnyardgrass plant response rating): 0% | pest or weed control at 125 g/ha (barnyardgrass; Echinochloa crus-galli, 125 g ai/ha, scale 0 to 100 (0 no effect, 100 complete control), read-out: Barnyardgrass plant response rating): 0% | pest or weed control at 250 g/ha (barnyardgrass; Echinochloa crus-galli, 250 g ai/ha, scale of 0 to 100, 0 is no effect, 100 is complete control, read-out: Barnyardgrass plant response rating): 60% | pest or weed control at 500 g/ha (barnyardgrass; Echinochloa crus-galli, 500 g ai/ha, visual rating after 12 to 14 days, scale 0 to 100 (0 no effect, 100 complete control), read-out: Plant response rating, Barnyardgrass): 80% | plant injury at 62 g/ha (rice; Oryza sativa, 62 g ai/ha, scale 0 to 100, read-out: Rice plant response rating): 10% | plant injury at 125 g/ha (rice; Oryza sativa, 125 g ai/ha, scale 0 to 100 (0 no effect, 100 complete control), read-out: Rice plant response rating): 45% | plant injury at 250 g/ha (rice; Oryza sativa, 250 g ai/ha, scale of 0 to 100, 0 is no effect, 100 is complete control, read-out: Rice plant response rating): 75% | plant injury at 500 g/ha (rice; Oryza sativa, 500 g ai/ha, visual rating after 12 to 14 days, scale 0 to 100 (0 no effect, 100 complete control), read-out: Plant response rating, Rice): 75%

CCc1nn(C(C)(C)CC)nc1C(=O)Nc1cccc(C(=O)N(C)C)c1 [Compound 372]
Plant response rating, Ragweed (common ragweed; [2]): 70 | Plant response rating (0 = no effect, 100 = complete control), Ragweed (common ragweed; 125 g ai/ha, preemergence): 90 | Plant response rating, Ragweed (common ragweed; [9]): 100 | Plant response rating, Ragweed (common ragweed; [10]): 100 | Plant response rating, Foxtail, Giant (giant foxtail; [2]): 70 | Plant response rating (0 = no effect, 100 = complete control), Foxtail, Giant (giant foxtail; 125 g ai/ha, preemergence): 85 | Plant response rating, Foxtail, Giant (giant foxtail; [9]): 90 | Plant response rating, Foxtail, Giant (giant foxtail; [10]): 90 | Plant response rating, Sunflower [1, 2]: 0 | Plant response rating (0 = no effect, 100 = complete control), Sunflower ([1]; 125 g ai/ha, preemergence): 0 | Plant response rating, Sunflower [1, 9]: 0 | Plant response rating, Sunflower [1, 10]: 60 | Plant response rating, Nightshade (eastern black nightshade; [2]): 85 | Plant response rating (0 = no effect, 100 = complete control), Nightshade (eastern black nightshade; 125 g ai/ha, preemergence): 95 | Plant response rating, Nightshade (eastern black nightshade; [9]): 100 | Plant response rating, Nightshade (eastern black nightshade; [10]): 100 | Barnyardgrass plant response rating (barnyardgrass; [5]): 65 | Barnyardgrass plant response rating (barnyardgrass; [8]): 70 | Barnyardgrass plant response rating (barnyardgrass; [6]): 75 | Plant response rating, Barnyardgrass (barnyardgrass; [7]): 80 | Rice plant response rating (rice; 62 g ai/ha, scale 0 to 100): 80 | Rice plant response rating (rice; [8]): 85 | Rice plant response rating (rice; [6]): 90 | Plant response rating, Rice (rice; [7]): 90
